In brackets after ≈: the same amount, converted by molar mass.
Key:
Candida albicans [1] = assay: Antifungal activity against Candida albicans SC5314 assessed as fungal growth inhibition incubated for 48 hrs by broth microdilution method; assay type: functional
Candida albicans [2] = assay: Antifungal activity against Candida albicans 21 assessed as fungal growth inhibition incubated for 48 hrs by broth microdilution method; assay type: functional
Nakaseomyces glabratus [3] = assay: Antifungal activity against Candida glabrata 201 assessed as fungal growth inhibition incubated for 48 hrs by broth microdilution method; assay type: functional
Nakaseomyces glabratus [4] = assay: Antifungal activity against Candida glabrata 202 assessed as fungal growth inhibition incubated for 48 hrs by broth microdilution method; assay type: functional
Nakaseomyces glabratus [5] = assay: Antifungal activity against Candida glabrata 205 assessed as fungal growth inhibition incubated for 48 hrs by broth microdilution method; assay type: functional
Pichia kudriavzevii [6] = assay: Antifungal activity against Candida krusei 68 assessed as fungal growth inhibition incubated for 48 hrs by broth microdilution method; assay type: functional
Pichia kudriavzevii [7] = assay: Antifungal activity against Candida krusei 477 assessed as fungal growth inhibition incubated for 48 hrs by broth microdilution method; assay type: functional
Candida parapsilosis [8] = assay: Antifungal activity against Candida parapsilosis 105 assessed as fungal growth inhibition incubated for 48 hrs by broth microdilution method; assay type: functional; settings: Lodderomyces parapsilosis
Candida parapsilosis [9] = assay: Antifungal activity against Candida parapsilosis 107 assessed as fungal growth inhibition incubated for 48 hrs by broth microdilution method; assay type: functional; settings: Lodderomyces parapsilosis
Candida parapsilosis [10] = assay: Antifungal activity against Candida parapsilosis 125 assessed as fungal growth inhibition incubated for 48 hrs by broth microdilution method; assay type: functional; settings: Lodderomyces parapsilosis
Candida tropicalis [11] = assay: Antifungal activity against Candida tropicalis 176 assessed as fungal growth inhibition incubated for 48 hrs by broth microdilution method; assay type: functional
Candida tropicalis [12] = assay: Antifungal activity against Candida tropicalis 184 assessed as fungal growth inhibition incubated for 48 hrs by broth microdilution method; assay type: functional
Cryptococcus neoformans [13] = assay: Antifungal activity against Cryptococcus neoformans 443 assessed as fungal growth inhibition incubated for 48 hrs by broth microdilution method; assay type: functional
Cryptococcus neoformans [14] = assay: Antifungal activity against Cryptococcus neoformans 444 assessed as fungal growth inhibition incubated for 48 hrs by broth microdilution method; assay type: functional
Cryptococcus neoformans [15] = assay: Antifungal activity against Cryptococcus neoformans 445 assessed as fungal growth inhibition incubated for 48 hrs by broth microdilution method; assay type: functional
Aspergillus fumigatus [16] = assay: Antifungal activity against Aspergillus fumigatus 023-12 assessed as fungal growth inhibition incubated for 48 hrs by broth microdilution method; assay type: functional
Aspergillus fumigatus [17] = assay: Antifungal activity against Aspergillus fumigatus A assessed as fungal growth inhibition incubated for 48 hrs by broth microdilution method; assay type: functional
Aspergillus fumigatus [18] = assay: Antifungal activity against Aspergillus fumigatus 7544 assessed as fungal growth inhibition incubated for 48 hrs by broth microdilution method; assay type: functional
[19] = Cytotoxicity against human Caco-2 cells assessed as cell growth inhibition incubated for 24 hrs by CCK8 assay; assay type: toxicity, cell-based
Candida albicans [20] = assay: Antifungal activity against Candida albicans 25 assessed as fungal growth inhibition incubated for 48 hrs by broth microdilution method; assay type: functional
Candida albicans [21] = assay: Antifungal activity against Candida albicans 337 assessed as fungal growth inhibition incubated for 48 hrs by broth microdilution method; assay type: functional
Candida albicans [22] = assay: Antifungal activity against Candida albicans 338 assessed as fungal growth inhibition incubated for 48 hrs by broth microdilution method; assay type: functional
[Candida] auris [23] = Antifungal activity against Candida auris 276 assessed as fungal growth inhibition incubated for 48 hrs by broth microdilution method; assay type: functional; settings: Candidozyma auris
[Candida] auris [24] = Antifungal activity against Candida auris 277 assessed as fungal growth inhibition incubated for 48 hrs by broth microdilution method; assay type: functional; settings: Candidozyma auris
[Candida] auris [25] = Antifungal activity against Candida auris 278 assessed as fungal growth inhibition incubated for 48 hrs by broth microdilution method; assay type: functional; settings: Candidozyma auris
[Candida] auris [26] = Antifungal activity against Candida auris CBS 12372 assessed as fungal growth inhibition incubated for 48 hrs by broth microdilution method; assay type: functional; settings: Candidozyma auris
[Candida] auris [27] = Antifungal activity against Candida auris 887 assessed as fungal growth inhibition incubated for 48 hrs by broth microdilution method; assay type: functional; settings: Candidozyma auris
[Candida] auris [28] = Antifungal activity against Candida auris 888 assessed as fungal growth inhibition incubated for 48 hrs by broth microdilution method; assay type: functional; settings: Candidozyma auris
Nakaseomyces glabratus [29] = assay: Antifungal activity against Candida glabrata 204 assessed as fungal growth inhibition incubated for 48 hrs by broth microdilution method; assay type: functional
Pichia kudriavzevii [30] = assay: Antifungal activity against Candida krusei 471 assessed as fungal growth inhibition incubated for 48 hrs by broth microdilution method; assay type: functional
Pichia kudriavzevii [31] = assay: Antifungal activity against Candida krusei 472 assessed as fungal growth inhibition incubated for 48 hrs by broth microdilution method; assay type: functional
Pichia kudriavzevii [32] = assay: Antifungal activity against Candida krusei 474 assessed as fungal growth inhibition incubated for 48 hrs by broth microdilution method; assay type: functional
Candida parapsilosis [33] = assay: Antifungal activity against Candida parapsilosis 104 assessed as fungal growth inhibition incubated for 48 hrs by broth microdilution method; assay type: functional; settings: Lodderomyces parapsilosis
Candida parapsilosis [34] = assay: Antifungal activity against Candida parapsilosis ATCC22019 assessed as fungal growth inhibition incubated for 48 hrs by broth microdilution method; assay type: functional; settings: Lodderomyces parapsilosis
Candida parapsilosis [35] = assay: Antifungal activity against Candida parapsilosis 106 assessed as fungal growth inhibition incubated for 48 hrs by broth microdilution method; assay type: functional; settings: Lodderomyces parapsilosis
Candida tropicalis [36] = assay: Antifungal activity against Candida tropicalis 172 assessed as fungal growth inhibition incubated for 48 hrs by broth microdilution method; assay type: functional
Candida tropicalis [37] = assay: Antifungal activity against Candida tropicalis 177 assessed as fungal growth inhibition incubated for 48 hrs by broth microdilution method; assay type: functional
Candida tropicalis [38] = assay: Antifungal activity against Candida tropicalis 182 assessed as fungal growth inhibition incubated for 48 hrs by broth microdilution method; assay type: functional
Cryptococcus neoformans [39] = assay: Antifungal activity against Cryptococcus neoformans H99 assessed as fungal growth inhibition incubated for 48 hrs by broth microdilution method; assay type: functional
Cryptococcus neoformans [40] = assay: Antifungal activity against Cryptococcus neoformans 56992 assessed as fungal growth inhibition incubated for 48 hrs by broth microdilution method; assay type: functional
Cryptococcus neoformans [41] = assay: Antifungal activity against Cryptococcus neoformans HN1 assessed as fungal growth inhibition incubated for 48 hrs by broth microdilution method; assay type: functional
Cryptococcus neoformans [42] = assay: Antifungal activity against Cryptococcus neoformans HN2 assessed as fungal growth inhibition incubated for 48 hrs by broth microdilution method; assay type: functional
Cryptococcus neoformans [43] = assay: Antifungal activity against Cryptococcus neoformans HN2-40 assessed as fungal growth inhibition incubated for 48 hrs by broth microdilution method; assay type: functional
Cryptococcus neoformans [44] = assay: Antifungal activity against Cryptococcus neoformans HN15 assessed as fungal growth inhibition incubated for 48 hrs by broth microdilution method; assay type: functional
Cryptococcus neoformans [45] = assay: Antifungal activity against Cryptococcus neoformans HN17 assessed as fungal growth inhibition incubated for 48 hrs by broth microdilution method; assay type: functional
Cryptococcus neoformans [46] = assay: Antifungal activity against Cryptococcus neoformans HN19 assessed as fungal growth inhibition incubated for 48 hrs by broth microdilution method; assay type: functional
Cryptococcus neoformans [47] = assay: Antifungal activity against Cryptococcus neoformans HN20 assessed as fungal growth inhibition incubated for 48 hrs by broth microdilution method; assay type: functional
Cryptococcus neoformans [48] = assay: Antifungal activity against Cryptococcus neoformans BJ3 assessed as fungal growth inhibition incubated for 48 hrs by broth microdilution method; assay type: functional
[49] = Antifungal activity against Cryptococcus gattii WM178 assessed as fungal growth inhibition incubated for 48 hrs by broth microdilution method; assay type: functional, Cryptococcus gattii VGI
[50] = Antifungal activity against Cryptococcus gattii WM179 assessed as fungal growth inhibition incubated for 48 hrs by broth microdilution method; assay type: functional, Cryptococcus gattii VGI
[51] = Antifungal activity against Cryptococcus gattii E566 assessed as fungal growth inhibition incubated for 48 hrs by broth microdilution method; assay type: functional, Cryptococcus gattii VGI
[52] = Antifungal activity against Cryptococcus gattii SCZ20024 assessed as fungal growth inhibition incubated for 48 hrs by broth microdilution method; assay type: functional, Cryptococcus gattii VGI
[53] = Antifungal activity against Cryptococcus gattii SCZ20031 assessed as fungal growth inhibition incubated for 48 hrs by broth microdilution method; assay type: functional, Cryptococcus gattii VGI

## Oc1c(I)cc(Cl)c2cccnc12 [CLIOQUINOL]
Candida albicans [1]
  MIC: 0.125 µg/mL (≈ 0.409 µM)
Candida albicans [2]
  MIC: 0.125 µg/mL (≈ 0.409 µM)
Nakaseomyces glabratus [3]
  MIC: 0.125 µg/mL (≈ 0.409 µM)
Nakaseomyces glabratus [4]
  MIC: 0.125 µg/mL (≈ 0.409 µM)
Nakaseomyces glabratus [5]
  MIC: 0.25 µg/mL (≈ 0.818 µM)
Pichia kudriavzevii [6]
  MIC: 0.25 µg/mL (≈ 0.818 µM)
Pichia kudriavzevii [7]
  MIC: 0.25 µg/mL (≈ 0.818 µM)
Candida parapsilosis [8]
  MIC: 0.25 µg/mL (≈ 0.818 µM)
Candida parapsilosis [9]
  MIC: 0.5 µg/mL (≈ 1.64 µM)
Candida parapsilosis [10]
  MIC: 0.25 µg/mL (≈ 0.818 µM)
Candida tropicalis [11]
  MIC: 0.032 µg/mL (≈ 0.105 µM)
Candida tropicalis [12]
  MIC: 0.125 µg/mL (≈ 0.409 µM)
Cryptococcus neoformans [13]
  MIC: 0.125 µg/mL (≈ 0.409 µM)
Cryptococcus neoformans [14]
  MIC: 0.125 µg/mL (≈ 0.409 µM)
Cryptococcus neoformans [15]
  MIC: 0.063 µg/mL (≈ 0.206 µM)
Aspergillus fumigatus [16]
  MIC: 0.25 µg/mL (≈ 0.818 µM)
Aspergillus fumigatus [17]
  MIC: 0.25 µg/mL (≈ 0.818 µM)
Aspergillus fumigatus [18]
  MIC: 0.25 µg/mL (≈ 0.818 µM)
[19]
  IC50 at 24 h: 19.3 µg/mL (≈ 63.1 µM)
Candida albicans [20]
  MIC: 0.125 µg/mL (≈ 0.409 µM)
Candida albicans [21]
  MIC: 0.125 µg/mL (≈ 0.409 µM)
Candida albicans [22]
  MIC: 0.125 µg/mL (≈ 0.409 µM)
[Candida] auris [23]
  MIC: 0.063 µg/mL (≈ 0.206 µM)
[Candida] auris [24]
  MIC: 0.063 µg/mL (≈ 0.206 µM)
[Candida] auris [25]
  MIC: 0.125 µg/mL (≈ 0.409 µM)
[Candida] auris [26]
  MIC: 0.063 µg/mL (≈ 0.206 µM)
[Candida] auris [27]
  MIC: 0.5 µg/mL (≈ 1.64 µM)
[Candida] auris [28]
  MIC: 0.25 µg/mL (≈ 0.818 µM)
Nakaseomyces glabratus [29]
  MIC: 0.125 µg/mL (≈ 0.409 µM)
Pichia kudriavzevii [30]
  MIC: 0.25 µg/mL (≈ 0.818 µM)
Pichia kudriavzevii [31]
  MIC: 0.125 µg/mL (≈ 0.409 µM)
Pichia kudriavzevii [32]
  MIC: 0.25 µg/mL (≈ 0.818 µM)
Candida parapsilosis [33]
  MIC: 0.125 µg/mL (≈ 0.409 µM)
Candida parapsilosis [34]
  MIC: 0.5 µg/mL (≈ 1.64 µM)
Candida parapsilosis [35]
  MIC: 0.25 µg/mL (≈ 0.818 µM)
Candida tropicalis [36]
  MIC: 0.125 µg/mL (≈ 0.409 µM)
Candida tropicalis [37]
  MIC: 0.125 µg/mL (≈ 0.409 µM)
Candida tropicalis [38]
  MIC: 0.125 µg/mL (≈ 0.409 µM)
Cryptococcus neoformans [39]
  MIC: 0.125 µg/mL (≈ 0.409 µM)
Cryptococcus neoformans [40]
  MIC: 0.063 µg/mL (≈ 0.206 µM)
Cryptococcus neoformans [41]
  MIC: 0.125 µg/mL (≈ 0.409 µM)
Cryptococcus neoformans [42]
  MIC: 0.125 µg/mL (≈ 0.409 µM)
Cryptococcus neoformans [43]
  MIC: 0.063 µg/mL (≈ 0.206 µM)
Cryptococcus neoformans [44]
  MIC: 0.125 µg/mL (≈ 0.409 µM)
Cryptococcus neoformans [45]
  MIC: 0.125 µg/mL (≈ 0.409 µM)
Cryptococcus neoformans [46]
  MIC: 0.063 µg/mL (≈ 0.206 µM)
Cryptococcus neoformans [47]
  MIC: 0.063 µg/mL (≈ 0.206 µM)
Cryptococcus neoformans [48]
  MIC: 0.063 µg/mL (≈ 0.206 µM)
[49]
  MIC: 0.031 µg/mL (≈ 0.101 µM)
[50]
  MIC: 0.031 µg/mL (≈ 0.101 µM)
[51]
  MIC: 0.031 µg/mL (≈ 0.101 µM)
[52]
  MIC: 0.031 µg/mL (≈ 0.101 µM)
[53]
  MIC: 0.031 µg/mL (≈ 0.101 µM)

Reference: ChEMBL document CHEMBL5375952, “Discovery of Novel 8-Hydroxyquinoline Derivatives with Potent In Vitro and In Vivo Antifungal Activity” (J Med Chem, 2023)
